# In patent publication US12569471B2, “Method of treatment of CNS disorders” (Supernus Pharmaceuticals, Inc., priority 2009, dated 2026):
# Tests used:
# [1] = target: T1, Delta2(h) opioid receptor (Homo sapiens, UniProt P41143); assay: heterologous competition (displacement) assay, delta opioid receptor; assay type: binding; details: 10 μM mazindol; [3H] [D-Ala2, D-Leu5] enkephalin 0.5 nM; 120 min/22° C.
# T1 construct: expressed in transfected cells; host or cells: CHO cell line
# Description: (§1) A heterologous competition assay was used to determine the relative affinity of mazindol for opioid receptors. Briefly, recombinant μ-, κ- or δ-opioid receptors were expressed in a CHO cell line. The receptors were then saturated with a tritiated receptor-specific ligand at concentrations known to be saturating. Thereupon, 10 μM mazindol was added to the cells in the presence of non-specific ligand and incubated. In this way, mazindol was allowed to “compete” with the receptor-specific ligand, such that greater displacement (i.e., % inhibition) is indicative of greater binding strength of mazindol at a given receptor. “Specific binding” refers here to the difference in the binding of the ligand to the receptors in the presence or absence of an excess of the mazindol.
# [2] = target: T2, Kappa (rat) opioid receptor (Rattus norvegicus, UniProt P34975); assay: heterologous competition (displacement) assay, kappa opioid receptor; assay type: binding; details: 10 μM mazindol; [3H]U 69593 1 nM; 60 min/22° C.
# T2 construct: expressed in transfected cells; host or cells: CHO cell line
# Description: as §1
# [3] = target: T3, human μ-opioid receptor (Homo sapiens, UniProt P35372); assay: heterologous competition (displacement) assay and IC50 determination, μ-opioid receptor; assay type: binding; set-up: binding at the μ-opioid receptor (specific binding), 1st test / binding at the μ-opioid receptor (specific binding), 2nd Test / binding at the μ-opioid receptor (specific binding), Mean: unit not given here
# T3 construct: expressed in transfected cells; host or cells: CHO cell line
# Description: as §1
# For this experiment, a range of mazindol concentrations was selected for the ligand blocking assay. The IC50 was determined using non-linear regression analysis of the competition curves using a Hill equation curve fitting (Y=D+[(A−D)/(1+(C/C50)nH)], where Y=specific binding, D=minimum specific binding, A=maximum specific binding, C=compound concentration, C50=IC50, and nH=slope factor). The inhibition constants Ki were calculated using Cheng Prusoff equation. Ki is defined as the concentration of the competing ligand (mazindol) that bound to half the binding sites at equilibrium in the absence of radioligand or other competitors.
# [4] = target: dopamine reuptake transporter (Homo sapiens, UniProt Q01959); details: background statement; cited from earlier work
# [5] = target: noradrenergic reuptake transporter (Homo sapiens, UniProt P23975); details: background statement; cited from earlier work
# [6] = target: serotonergic reuptake transporter (Homo sapiens, UniProt P31645); details: background statement; cited from earlier work
# [7] = target: H1 receptor (Homo sapiens, UniProt P35367); details: background statement; cited from earlier work
# [8] = target: T4, μ-opioid receptors in the guinea pig ileum (Cavia porcellus, UniProt A0ACM8Q262); assay: μ-opioid receptor bioassay, test for agonist activity (twitch contraction amplitude); details: for agonist activity: decrease in twitch contraction amplitude / agonist activity: decrease in twitch contraction amplitude, +Naloxone: mean, n=2
# [9] = target: T4, μ-opioid receptors in the guinea pig ileum; assay: μ-opioid receptor bioassay, test for antagonist activity (DAMGO-induced decrease in twitch contraction amplitude); details: for antagonist activity: response to DAMGO (1.0E−07M) in presence of compound: mean, n=2
smiles,measurement,setting,value
"OC1(c2ccc(Cl)cc2)c2ccccc2C2=NCCN21 (stereo not shown) [mazindol, 5-(p-chloropheny)-2,5-dihydro-3H-imidazo[2,1-a] isoindol-5-ol]",inhibition at 10 µM,[1],14%
same,% Inhib.,[2],33%
same,IC50,[3],690 nM
same,Ki,[3],280 nM
same,inhibition at 10 µM,"[3]; 10 μM mazindol, [3H] Ala2-MePhe4-Gly5-Enkephalin 0.5 nM, 120 min/22° C.",84%
same,nH (slope factor),[3]; M (h) (MOP) (agonist site),0.8
same,"binding at the μ-opioid receptor (specific binding), 1st test",[3]; mazindol 1.0E−04 M,5.8
same,"binding at the μ-opioid receptor (specific binding), 2nd Test",[3]; mazindol 1.0E−04 M,7.4
same,"binding at the μ-opioid receptor (specific binding), Mean",[3]; mazindol 1.0E−04 M,6.6
same,"binding at the μ-opioid receptor (specific binding), 1st test",[3]; mazindol 1.0E−05 M,12.6
same,"binding at the μ-opioid receptor (specific binding), 2nd Test",[3]; mazindol 1.0E−05 M,13.0
same,"binding at the μ-opioid receptor (specific binding), Mean",[3]; mazindol 1.0E−05 M,12.8
same,"binding at the μ-opioid receptor (specific binding), 1st test",[3]; mazindol 1.0E−06 M,42.4
same,"binding at the μ-opioid receptor (specific binding), 2nd Test",[3]; mazindol 1.0E−06 M,41.7
same,"binding at the μ-opioid receptor (specific binding), Mean",[3]; mazindol 1.0E−06 M,42.0
same,"binding at the μ-opioid receptor (specific binding), 1st test",[3]; mazindol 1.0E−07 M,83.2
same,"binding at the μ-opioid receptor (specific binding), 2nd Test",[3]; mazindol 1.0E−07 M,83.2
same,"binding at the μ-opioid receptor (specific binding), Mean",[3]; mazindol 1.0E−07 M,83.2
same,"binding at the μ-opioid receptor (specific binding), 1st test",[3]; mazindol 3.0E−05 M,9.1
same,"binding at the μ-opioid receptor (specific binding), 2nd Test",[3]; mazindol 3.0E−05 M,7.6
same,"binding at the μ-opioid receptor (specific binding), Mean",[3]; mazindol 3.0E−05 M,8.3
same,"binding at the μ-opioid receptor (specific binding), 1st test",[3]; mazindol 3.0E−06 M,24.7
same,"binding at the μ-opioid receptor (specific binding), 2nd Test",[3]; mazindol 3.0E−06 M,26.4
same,"binding at the μ-opioid receptor (specific binding), Mean",[3]; mazindol 3.0E−06 M,25.5
same,"binding at the μ-opioid receptor (specific binding), 1st test",[3]; mazindol 3.0E−07 M,58.2
same,"binding at the μ-opioid receptor (specific binding), 2nd Test",[3]; mazindol 3.0E−07 M,60.9
same,"binding at the μ-opioid receptor (specific binding), Mean",[3]; mazindol 3.0E−07 M,59.5
same,"binding at the μ-opioid receptor (specific binding), 1st test",[3]; mazindol 3.0E−08 M,102.1
same,"binding at the μ-opioid receptor (specific binding), 2nd Test",[3]; mazindol 3.0E−08 M,97.5
same,"binding at the μ-opioid receptor (specific binding), Mean",[3]; mazindol 3.0E−08 M,99.8
same,binding activity at dopamine reuptake transporter,[4],specific inhibitory binding activity
same,binding activity at noradrenergic reuptake transporter,[5],specific inhibitory binding activity
same,binding activity at serotonergic reuptake transporter,[6],specific inhibitory binding activity
same,binding at the H1 receptor,[7],moderately potent binding
same,agonist activity: decrease in twitch contraction amplitude,[8]; compound 1.0E−05 M,94% of the control response to DAMGO
same,agonist activity: decrease in twitch contraction amplitude,[8]; compound 1.0E−06 M,25% of the control response to DAMGO
same,agonist activity: decrease in twitch contraction amplitude,[8]; compound 1.0E−07 M,1% of the control response to DAMGO
same,"agonist activity: decrease in twitch contraction amplitude, +Naloxone",[8]; compound 3.0E−05M + Naloxone (1.0E−07M),5% of the control response to DAMGO
same,agonist activity: decrease in twitch contraction amplitude,[8]; compound 3.0E−05 M,103% of the control response to DAMGO
same,agonist activity: decrease in twitch contraction amplitude,[8]; compound 3.0E−06 M,64% of the control response to DAMGO
same,agonist activity: decrease in twitch contraction amplitude,[8]; compound 3.0E−07 M,9% of the control response to DAMGO
same,effect on twitch contraction amplitude,[8]; guinea pig ileum,concentration-dependent decrease in the twitch contraction amplitude
same,nature of the binding (agonist or antagonist) at the μ-opioid receptors,[8]; guinea pig ileum,behaves as an agonist
same,reversal of the agonist-like response by reference antagonist naloxone,[8]; guinea pig ileum,fully reversed by naloxone
same,EC50,"[8]; read-out: Agonist activity EC50 value, guinea pig ileum, linear regression of concentration-response curve",2000 nM
same,antagonist activity: response to DAMGO (1.0E−07M) in presence of compound,[9]; compound 1.0E−05 M,105% of the control response to DAMGO
same,antagonist activity: response to DAMGO (1.0E−07M) in presence of compound,[9]; compound 1.0E−06 M,100% of the control response to DAMGO
same,antagonist activity: response to DAMGO (1.0E−07M) in presence of compound,[9]; compound 1.0E−07 M,100% of the control response to DAMGO
same,antagonist activity: response to DAMGO (1.0E−07M) in presence of compound,[9]; compound 3.0E−05 M,107% of the control response to DAMGO
same,antagonist activity: response to DAMGO (1.0E−07M) in presence of compound,[9]; compound 3.0E−06 M,102% of the control response to DAMGO
same,antagonist activity: response to DAMGO (1.0E−07M) in presence of compound,[9]; compound 3.0E−07 M,100% of the control response to DAMGO
same,Antagonist activity IC50 value,[9]; guinea pig ileum,no antagonist effect
same,concentrations causing a further decrease in twitch contraction amplitude beyond DAMGO,[9]; guinea pig ileum,higher than 1.0E-06 M
same,effect on the DAMGO-induced decrease in twitch contraction amplitude,[9]; guinea pig ileum,did not reverse the DAMGO-induced decrease in twitch contraction amplitude
C[C@@H](NC(=O)[C@@H](N)Cc1ccc(O)cc1)C(=O)NCC(=O)N(C)[C@@H](Cc1ccccc1)C(=O)NCCO [DAMGO],"agonist activity: decrease in twitch contraction amplitude, +Naloxone",[8]; compound 1.0E−07M + Naloxone (1.0E−07M),−10% of the control response to DAMGO
same,agonist activity: decrease in twitch contraction amplitude,[8]; compound 1.0E−07 M,104% of the control response to DAMGO
same,agonist activity: decrease in twitch contraction amplitude,[8]; compound 1.0E−08 M,62% of the control response to DAMGO
same,agonist activity: decrease in twitch contraction amplitude,[8]; compound 1.0E−09 M,14% of the control response to DAMGO
